Several values for one entry are separate records, joined by “and”; a condition that tells them apart may be missing. Identical values can stand only once.

For the test, the system named is 292921-168-R-J2-PDC complex spheroid viability. In words: Anticancer human tumor 292921-168-R-J2-PDC patient-derived pancreatic carcinoma cell line growth inhibition. The settings on record: for viability, T/C: stronger effect = lower value. Summed up:
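Multicellular complex spheroids of tumor cells with human endothelial cells (HUVEC) and mesenchymal stem cells; the LSD1 inhibitor iadademstat was combined with standard-of-care or investigational agents. Top concentration at or near clinical Cmax, half-log dilutions; final DMSO ≤0.25%.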

Setting [1] is: curve of first compound, second compound 0.1 µM.
The mark [2] stands for this setting: curve of first compound, second compound 0.316 µM.
The mark [3] stands for this setting: curve of first compound, second compound 1 µM.
Setting [4] is: curve of first compound, second compound 3.16 µM.
[5] abbreviates: curve of first compound, second compound 10 µM.
Where [6] appears, read: second compound 0.1 µM, first compound 0.00316 µM.
[7] abbreviates: second compound 0.1 µM, first compound 0.01 µM.
[8] abbreviates: second compound 0.1 µM, first compound 0.0316 µM.
[9] abbreviates: second compound 0.1 µM, first compound 0.1 µM.
Where [10] appears, read: second compound 0.316 µM, first compound 0.00316 µM.
The mark [11] stands for this setting: second compound 0.316 µM, first compound 0.01 µM.
Where [12] appears, read: second compound 0.316 µM, first compound 0.0316 µM.
Where [13] appears, read: second compound 0.316 µM, first compound 0.1 µM.
[14] abbreviates: second compound 1 µM, first compound 0.00316 µM.
[15] abbreviates: second compound 1 µM, first compound 0.01 µM.
Setting [16] is: second compound 1 µM, first compound 0.0316 µM.
Setting [17] is: second compound 1 µM, first compound 0.1 µM.
Setting [18] is: second compound 3.16 µM, first compound 0.00316 µM.
Setting [19] is: second compound 3.16 µM, first compound 0.01 µM.
Setting [20] is: second compound 3.16 µM, first compound 0.0316 µM.
[21] abbreviates: second compound 3.16 µM, first compound 0.1 µM.
Setting [22] is: second compound 10 µM, first compound 0.00316 µM.
[23] abbreviates: second compound 10 µM, first compound 0.01 µM.
[24] abbreviates: second compound 10 µM, first compound 0.0316 µM.
Where [25] appears, read: second compound 10 µM, first compound 0.1 µM.
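Further: seven day compound exposure before luminescent viability read.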
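Wherever viability, T/C is given: 100% = DMSO vehicle control wells.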

Take `CC[C@@]1(O)C(=O)OCc2c1cc1n(c2=O)Cc2cc3c(CN(C)C)c(O)ccc3nc2-1` + NC1CCC(NC2CC2c2ccccc2)CC1: the 50% inhibitory concentration (IC50) was found to be 2.11 nM under setting [1]; 1.65 nM under setting [2]; 1.58 nM under setting [3]; 1.07 nM under setting [4]; 0.869 nM under setting [5]. Further, the viability, T/C (second compound 0.1 µM, first compound 0.000316 µM) is 64.5%; the viability, T/C (second compound 0.1 µM, first compound 0.001 µM) is 60.2%; the viability, T/C under setting [6] was 44.6%; the viability, T/C under setting [7] is 19.7%; the viability, T/C under setting [8] is 8.14%; the viability, T/C under setting [9] was 4.05%. The viability, T/C (second compound 0.316 µM, first compound 0.000316 µM) is 61.4%; the viability, T/C (second compound 0.316 µM, first compound 0.001 µM) is 61%; the viability, T/C under setting [10] is 37.9%; the viability, T/C under setting [11] was 18.5%; the viability, T/C under setting [12] is 8.83%; the viability, T/C under setting [13] is 4.07%. Also, the viability, T/C is 61.2% (second compound 1 µM, first compound 0.000316 µM); 56.4% (second compound 1 µM, first compound 0.001 µM); 40.9% under setting [14]; 19.4% under setting [15]; 10.6% under setting [16]; 4.35% under setting [17]. The viability, T/C (second compound 3.16 µM, first compound 0.000316 µM) is 54.9%; the viability, T/C (second compound 3.16 µM, first compound 0.001 µM) is 50.8%; the viability, T/C under setting [18] is 38.2%; the viability, T/C under setting [19] is 18.5%; the viability, T/C under setting [20] is 8.6%; the viability, T/C under setting [21] is 3.74%. The viability, T/C is, setting by setting: (second compound 10 µM, first compound 0.000316 µM) 51.4%; (second compound 10 µM, first compound 0.001 µM) 50.9%; under setting [22], 36.9%; under setting [23], 15.6%; under setting [24], 8.03%; under setting [25], 3.69%.

With `COc1cc(Nc2ncc3c(n2)-c2ccc(Cl)cc2C(c2c(F)cccc2OC)=NC3)ccc1C(=O)O`, the viability, T/C (compound 0.00316 µM) was 33% and 38.1%; the viability, T/C (compound 0.01 µM) was 40.7% and 42.1%; the viability, T/C (compound 0.0316 µM) was 36% and 39.1%; the viability, T/C (compound 0.1 µM) is 30.2% and 37.9%; the viability, T/C (compound 0.316 µM) was 27.7% and 29.6%; the viability, T/C (compound 1 µM) was 16.1% and 17.5%. Further, where the note is “curve of compound”, the IC50 was < 3.16 nM.

As for `NS(=O)(=O)OCC1CC(n2ccc3c(NC4CCc5ccccc54)ncnc32)CC1O` (centres undefined), the viability, T/C is 81.2% and 90.5% (compound 0.00949 µM); 15.7% and 18% (compound 0.03 µM); 2.87% and 3.52% (compound 0.0949 µM); 1.94% and 1.72% (compound 0.3 µM); 1.98% and 1.67% (compound 0.949 µM); 1.78% and 1.54% (compound 3 µM). In addition, the IC50 (curve of compound) is 16.4 nM and 18.1 nM.

Turning to `Nc1ccccc1NC(=O)c1ccc(CNC(=O)OCc2cccnc2)cc1` + NC1CCC(NC2CC2c2ccccc2)CC1, the IC50 was 28.7 nM under setting [1]; 15.1 nM under setting [2]; < 9.49 nM under setting [3]; 13.1 nM under setting [4]; < 9.49 nM under setting [5]. Also, the viability, T/C is 61.3% (second compound 0.1 µM, first compound 0.00949 µM); 48.3% (second compound 0.1 µM, first compound 0.03 µM); 34.6% (second compound 0.1 µM, first compound 0.0949 µM); 20.5% (second compound 0.1 µM, first compound 0.3 µM); 3.31% (second compound 0.1 µM, first compound 0.949 µM); 0.22% (second compound 0.1 µM, first compound 3 µM). For the same compound, the viability, T/C was 53.1% (second compound 0.316 µM, first compound 0.00949 µM); 45.2% (second compound 0.316 µM, first compound 0.03 µM); 34.6% (second compound 0.316 µM, first compound 0.0949 µM); 18.8% (second compound 0.316 µM, first compound 0.3 µM); 3.86% (second compound 0.316 µM, first compound 0.949 µM); 0.24% (second compound 0.316 µM, first compound 3 µM). The viability, T/C was 50.8% (second compound 1 µM, first compound 0.00949 µM); 39.9% (second compound 1 µM, first compound 0.03 µM); 33.4% (second compound 1 µM, first compound 0.0949 µM); 20.6% (second compound 1 µM, first compound 0.3 µM); 3.16% (second compound 1 µM, first compound 0.949 µM); 0.22% (second compound 1 µM, first compound 3 µM). In addition, the viability, T/C is 52.9% (second compound 3.16 µM, first compound 0.00949 µM); 43% (second compound 3.16 µM, first compound 0.03 µM); 27.2% (second compound 3.16 µM, first compound 0.0949 µM); 16.3% (second compound 3.16 µM, first compound 0.3 µM); 2.26% (second compound 3.16 µM, first compound 0.949 µM); 0.38% (second compound 3.16 µM, first compound 3 µM). Further, the viability, T/C runs as follows: (second compound 10 µM, first compound 0.00949 µM) 42.5%; (second compound 10 µM, first compound 0.03 µM) 39.5%; (second compound 10 µM, first compound 0.0949 µM) 26.8%; (second compound 10 µM, first compound 0.3 µM) 14.2%; (second compound 10 µM, first compound 0.949 µM) 0.79%; (second compound 10 µM, first compound 3 µM) 0.3%.

Regarding `O=C(C=Cn1cnc(-c2cc(C(F)(F)F)cc(C(F)(F)F)c2)n1)NNc1cnccn1` + NC1CCC(NC2CC2c2ccccc2)CC1, the half-inhibitory concentration (IC50) is, setting by setting: under setting [1], 5.43 nM; under setting [2], 8.67 nM; under setting [3], 10.6 nM; under setting [4], 6.77 nM; under setting [5], 5.92 nM. Further, the viability, T/C reads like this: under setting [6], 52.7%; under setting [7], 47.4%; under setting [8], 25.9%; under setting [9], 13.2%; (second compound 0.1 µM, first compound 0.316 µM) 6.69%; (second compound 0.1 µM, first compound 1 µM) 6.34%. The viability, T/C under setting [10] was 54.7%; the viability, T/C under setting [11] was 50.4%; the viability, T/C under setting [12] is 27%; the viability, T/C under setting [13] was 13.6%; the viability, T/C (second compound 0.316 µM, first compound 0.316 µM) is 8.09%; the viability, T/C (second compound 0.316 µM, first compound 1 µM) was 7.2%. Further, the viability, T/C was 56.7% under setting [14]; 52.1% under setting [15]; 29% under setting [16]; 13.8% under setting [17]; 9.01% (second compound 1 µM, first compound 0.316 µM); 7.09% (second compound 1 µM, first compound 1 µM). The viability, T/C runs as follows: under setting [18], 53%; under setting [19], 48.5%; under setting [20], 29.9%; under setting [21], 12.9%; (second compound 3.16 µM, first compound 0.316 µM) 8.57%; (second compound 3.16 µM, first compound 1 µM) 8.41%. The viability, T/C by setting is: under setting [22], 53.2%; under setting [23], 47.8%; under setting [24], 30.2%; under setting [25], 16.3%; (second compound 10 µM, first compound 0.316 µM) 9.15%; (second compound 10 µM, first compound 1 µM) 8.4%.

These data come from PubChem BioAssay AID1918934 (Molecular Pharmacology Branch, DTP, NCI, 2023).
